Source: patent publication US8802731B2, “N-acetyl beta alanine methods of use” (ThermoLife International, LLC, priority 2011, dated 2014)
Blank lines part the entries; values can stand above or below the compound they belong to.

What was measured:
[1] = solubility in organic solvents; type: physicochemical
[2] = test system: subjects; test: paresthesia after administration of N-acetyl beta alanine to subjects; type: in vivo, human
Description: For the exemplary purposes of this disclosure, the Applicants have administered N-acetyl beta alanine to over 30 different subjects in doses ranging from 1 to even 10 grams.

[3] = test system: well trained athletes; test: effects reported by well trained athletes given N-acetyl-beta alanine; type: in vivo, human; conditions: 5 grams per day x1, 10 well trained athletes, self-report
Description: For the exemplary purposes of this disclosure, the Applicants have also administered N-acetyl-beta alanine at a dose of 5 grams per day ×1 in 10 subjects, all of them well trained athletes that had in the past used beta alanine and were well aware of it's benefits. All of the subjects had not used beta alanine for at least a month. They were asked to report the effects of the “new beta alanine preparation” they were offered.

[4] = solubility in water; type: physicochemical; conditions: found by applicants
[5] = single ingested dose; cited from earlier work
[6] = test system: elderly men and women; conditions: cited from earlier work
[7] = cited from earlier work
[8] = test system: experienced resistance-trained athletes; conditions: four weeks of supplementation; cited from earlier work
[9] = cited from earlier work; remark: listed apart in the source
[10] = described (literature); cited from earlier work
[11] = test system: mice; conditions: cited from earlier work
[12] = test system: individuals; conditions: cited from earlier work
[13] = test system: subjects; conditions: 10 weeks of resistance training with supplementation; cited from earlier work
[14] = test system: fructose-fed rats; conditions: preliminary experiment; cited from earlier work

solubility in water and organic solvents [1]: soluble in water and organic solvents | paresthesia ([2]; large doses of 5+ grams): no paresthesia observed | paresthesia or negative feelings described by users ([2]; over 30 subjects, doses ranging from 1 to 10 grams): No paresthesia or negative feelings | solubility in water [4]: 22 g/100 mL
SMILES: CC(=O)NCCC(=O)O [N-acetyl beta alanine, 3-acetamidopropanoic acid]
rate at which full benefits were exhibited [3]: full benefits were exhibited at a faster rate | reported effectiveness compared with normal beta-alanine [3]: improved effectiveness over normal beta-alanine

SMILES: NCCC(=O)O [beta alanine, β-Alanine]
single dose above which symptoms of paresthesia may be observed [5]: higher than 800 mg | increase in physical working capacity fatigue threshold ([6]; 800 mg x3 per day, elderly (55-92 years)): 28% | physical working capacity / onset of neuromuscular fatigue ([6]; ninety days of supplementation, elderly men and women): may increase physical working capacity by delaying the onset of neuromuscular fatigue | acidosis due to exercise ([7]; 4.8 grams per day): can attenuate acidosis due to exercise | fall in blood pH during high-intensity exercise ([7]; chronic supplementation): can attenuate the fall in blood pH | muscular endurance during resistance training [8]: can significantly improve muscular endurance | maximal strength or VO2max ([9]; in vivo): does not improve maximal strength or VO2max | onset of neuromuscular fatigue ([9]; in vivo): delay the onset of neuromuscular fatigue | performance in high-intensity exercise ([9]; multiple bouts of high-intensity exercise and single bouts lasting more than 60 s): improvements in performance | water solubility [10]: 55-89 grams/100 ml | behavioral effect of supplemented diet [11]: anxiolytic-like effect | aerobic capacity (VO2max) ([12]; post supplementation, 28 days): reduced aerobic capacity | sub-maximal endurance performance (OBLA) ([12]; supplementation for 28 days): enhanced sub-maximal endurance performance by delaying OBLA | increase in Muscle-Carnosine [13]: 12.81+/−7.97 mmol×kg (−1) dry muscle

SMILES: NCCC(=O)N[C@@H](Cc1cnc[nH]1)C(=O)O [carnosine]
diabetes-associated increase in blood pressure [14]: suppressed diabetes-associated increase in blood pressure

SMILES: NCCS(=O)(=O)O [taurine]
behavioral effect of supplemented diet [11]: antidepressant-like effect
